Data reported in US11260108B2, “MIC-1 and GLP-1 for use in the treatment of obesity” (Novo Nordisk A/S, priority 2017, dated 2022).

Tested on: male obese Sprague Dawley rats
Assay: Body weight lowering in obese rat, MIC-1-HSA in combination with semaglutide (Example 2)
Type: in vivo
Text: The purpose of the study in example 2 was to investigate effects of a MIC-1-HSA compound in combination with the GLP-1 compound semaglutide on body weight lowering in obese rat.
60 male obese Sprague Dawley rats from Taconic were used. Animals where housed 2 per cage and had ad libitum access to high-fat diet (45 kcal % fat, Research Diets Inc, diet 12451). Mean starting body weight was 736.0 g (634.7-982.4 g). Animals were randomised into 6 groups based on body weight (n=10). Animals were housed in reversed light cycle (dark 11:00-23:00). Vehicle and semaglutide were dosed subcutaneously (SC) once daily (QD) for the duration of the study (study day 0-26) at 10 am. Because of the immunogenic properties of MIC-1-HSA in rodents, the dosing period with MIC-1-HSA was limited to 12 days. MIC-1-HSA was dosed SC every other day, starting at study day 15 and ending at day 26. The two compounds were in all cases dosed individually and were not administrated in the same formulation using the same syringe.
Due to a long in vivo terminal half-life of MIC-1 HSA (˜50 hrs in lean rat) animals were dosed with a bolus dose at day 15 and subsequent doses of MIC-1-HSA were reduced to compensate for the protracted half-life to achieve a stable plasma exposure during the study. […] Dose volume was adjusted to daily body weight. Please see table 3.
The dose of Semaglutide was 2 nmol/kg and was selected in order to achieve a therapeutic relevant pharmaco-dynamic effect.
From day −1 and during the entire dosing period until day 26, body weight was monitored daily prior to dosing.
The dosing was performed using insulin syringe and a dosing volume of 1 ml/kg (2.3 ml/kg for bolus dose of MIC-1-HSA).
In table 4 are shown pharmacodynamic effects expressed as changes in body weights of obese rats in response to the 6 treatment arms. Data are expressed as the average values as grams (A) and as percentages (B). “Delta 0-26” is the change in body weight from day 0 to day 26. “vs vehicle” is the change in body weight at day 26 in comparison with the vehicle group at day 26. “Predicted” is the expected change in body weight based on body weight changes in the associated MIC-1-HSA and semaglutide mono-therapy arms. “Synergy” expresses the unexpected and additional effect beyond the predicted effect of the MIC-1-HSA and semaglutide combination. This value is calculated by subtracting the predicted value from the actual effect of the combination (vs vehicle). A negative synergy value reflects an additional unexpected synergistic body weight lowering effect.

[1] = Sema 2 nmol/kg, change day 0 to day 26
[2] = Sema 2 nmol/kg, day 26 vs vehicle group

N6.26-{18-[N-(17-carboxyheptadecanoyl)-L-γ-glutamyl]-10-oxo-3,6,12,15-tetraoxa-9,18-diazaoctadecanoyl}-[8-(2-amino-2-propanoic acid),34-L-arginine]human glucagon-like peptide 1(7-37) [Sema]
Body weight [% of study start] Study end (Sema 2 nmol/kg SC QD day 0-26): 95 % of study start
Body weight [gram] Study end (Sema 2 nmol/kg SC QD day 0-26): 746 gram
Body weight [% of study start] Delta 0-26 [1]: −5.4 % of study start
Body weight [gram] Delta 0-26 [1]: −41.8 gram
Body weight [% of study start] vs vehicle [2]: −8.0 % of study start
Body weight [gram] vs vehicle [2]: −62.2 gram
reduced body weight compared to vehicle (semaglutide monotherapy 2 nmol/kg, day 26): 8.0%
